Results on two compounds are retold here after US5332574A, “Compounds produced by a strain of Streptomyces exfoliatus” (Bristol-Myers Squibb Company, priority 1993, dated 1994).

What all share (test): MIC, serial two-fold agar dilution method
Holding throughout (format): cell-based

Experiment [1] concerns Klebsiella pneumoniae PCI 602. The protocol: (§1) The minimum inhibitory concentrations (MICs) of BU-4726G-A and BU-4726G-B were determined against various bacteria and fungi by the serial two-fold agar dilution method. Nutrient agar medium (Eiken) was used for bacteria and Sabouraud dextrose agar medium (Difco) for fungi.
(§2) Medium: Nutrient agar (Eiken, pH 7.0)
(§3) Inoculum size: 10^5 cells/ml
(§4) Inoculated conditions: 32° C., 20 hours

For another experiment, the system named is Escherichia coli Juhl. The protocol: as §1, §2, §3, §4
For experiment [2], the system named is Bacillus subtilis ATCC 6633. As for the experimental part:
as §1, §2, §3, §4

Experiment [3] relates to Staphylococcus aureus A15036(MRSA). The protocol: as §1, §2, §3, §4
The subject of experiment [4] is Micrococcus luteus ATCC 9341. The protocol:
as §1, §2, §3, §4

A further experiment relates to Escherichia coli K12. The conditions noted are these: Nutrient agar pH 7.0, 10^5 cells/ml, 32° C., 20 hours. As for the experimental part: as §1, §2, §3, §4
For experiment [5], the system named is Streptococcus faecalis A2808. The conditions noted are these: Enterococcus faecalis, A2808, 20 h, pH 7. As for the experimental part:
as §1, §2, §3, §4

A further experiment has as its system Salmonella typhi 901. The conditions noted are these: Salmonella enterica, 20 h, pH 7. As for the experimental part: as §1, §2, §3, §4
The test system of experiment [6] is Staphylococcus aureus Smith. As for the experimental part: as §1, §2, §3, §4
In experiment [7] the test system is Staphylococcus aureus 209P. As for the experimental part:
as §1, §2, §3, §4

Experiment [8] deals with Pseudomonas aeruginosa A9843 A. The note with it: A9843A. As for the experimental part:
as §1, §2, §3, §4

Experiment [9] relates to Staphylococcus epidermidis 11-1168. The note with it: 111168, Nutrient agar pH 7.0, 10^5 cells/ml, 32° C., 20 hours. As for the experimental part:
as §1, §2, §3, §4

Values after ≈ are worked out from the molar mass of the structure shown. Where two headings read alike, the source gives them in different places.

`N[C@@H](C(=O)N[C@@H]1C(=O)N2C(C(=O)O)=C(Cl)CS[C@H]12)c1ccccc1` [Cefaclor]: the minimal inhibitory concentration (MIC) in [1] (Klebsiella pneumoniae, PCI602, 20 h, pH 7) is 0.2 µg/mL (≈ 0.544 µM); against Escherichia coli Juhl (Escherichia coli, 20 h, pH 7), 0.4 µg/mL (≈ 1.09 µM); in [2] (Bacillus subtilis, ATCC6633, 20 h, pH 7), under 0.05 µg/mL; in experiment [3] (Staphylococcus aureus, MRSA, 20 h, pH 7) it was 25 µg/mL (≈ 68 µM); in experiment [4] (Micrococcus luteus, ATCC9341, 20 h, pH 7), under 0.05 µg/mL; in the experiment with Escherichia coli K12, 0.4 µg/mL (≈ 1.09 µM). In addition, the MIC in experiment [5] was 25 µg/mL (≈ 68 µM); with Salmonella typhi 901 it was 0.2 µg/mL (≈ 0.544 µM); in experiment [6] (Staphylococcus aureus, 20 h, pH 7) it was 0.4 µg/mL (≈ 1.09 µM); in experiment [7] (Staphylococcus aureus, 209P, 20 h, pH 7) it was 0.8 µg/mL (≈ 2.18 µM); in experiment [8] (Pseudomonas aeruginosa, 20 h, pH 7) it was over 100 µg/mL.
For `NCC[C@H](O)C(=O)N[C@@H]1C[C@H](N)[C@@H](O[C@H]2O[C@H](CN)[C@@H](O)[C@H](O)[C@H]2O)[C@H](O)[C@H]1O[C@H]1O[C@H](CO)[C@@H](O)[C@H](N)[C@H]1O` [Amikacin], the MIC amounted to 0.4 µg/mL (≈ 0.683 µM) in experiment [1] (PCI602, Klebsiella pneumoniae PCI 602, Nutrient agar pH 7.0, 10^5 cells/ml, 32° C., 20 hours, read-out: MIC); 3.1 µg/mL (≈ 5.29 µM) in the experiment with Escherichia coli Juhl (Escherichia coli Juhl, Nutrient agar pH 7.0, 10^5 cells/ml, 32° C., 20 hours, read-out: MIC); 0.4 µg/mL (≈ 0.683 µM) in experiment [2] (ATCC6633, Bacillus subtilis ATCC 6633, Nutrient agar pH 7.0, 10^5 cells/ml, 32° C., 20 hours, read-out: MIC); 3.1 µg/mL (≈ 5.29 µM) in experiment [3] (Staphylococcus aureus A15036(MRSA), Nutrient agar pH 7.0, 10^5 cells/ml, 32° C., 20 hours, read-out: MIC); 3.1 µg/mL (≈ 5.29 µM) in experiment [4] (ATCC9341, Micrococcus luteus ATCC 9341, Nutrient agar pH 7.0, 10^5 cells/ml, 32° C., 20 hours, read-out: MIC); 0.8 µg/mL (≈ 1.37 µM) in the experiment with Escherichia coli K12. Also, the MIC in experiment [5] is 50 µg/mL (≈ 85.4 µM); with Salmonella typhi 901 it was 3.1 µg/mL (≈ 5.29 µM); in [6] (Staphylococcus aureus Smith, Nutrient agar pH 7.0, 10^5 cells/ml, 32° C., 20 hours, read-out: MIC), 1.6 µg/mL (≈ 2.73 µM); in experiment [9], 50 µg/mL (≈ 85.4 µM); in experiment [7] (Staphylococcus aureus 209P, Nutrient agar pH 7.0, 10^5 cells/ml, 32° C., 20 hours, read-out: MIC), 0.4 µg/mL (≈ 0.683 µM); in experiment [8] (Pseudomonas aeruginosa A9843 A, Nutrient agar pH 7.0, 10^5 cells/ml, 32° C., 20 hours, read-out: MIC), 3.1 µg/mL (≈ 5.29 µM).
